{"source": "patent US9358249B2", "about": "“Use of Pateamine A for the treatment of age-related muscle wasting” (The Regents of the University of California, priority 2008, dated 2016)", "key": {"[1]": {"test_system": "HCV IRES mediated (eIF4A-independent) translation of firefly luciferase", "experiment": "Bicistronic dual-luciferase reporter pcDNA/Ren/HCV/FF in HEK 293 cells, firefly luciferase", "format": "cell-based", "settings": "0-100 μM, 33 hour after transfection", "description": "(§1) FIG. 3A: Schematic diagram of the bicistronic dual-luciferase mRNA Ren-HCV-FF. FIG. 3B: Resveratrol inhibits cap-dependent translation initiation of Renilla luciferase but not eIF4A-independent translation of firefly luciferase. HEK 293 cells transfected with plasmid pcDNA/REN/HCV/FF are treated with different concentration of resveratrol (0, 0.1, 1, 10, 50, 100 μM). Translation of reporter genes was measured 33 hour after transfection using the Dual-Glo luciferase assay (Promega) with an Analyst HT plate reader (Molecular Devices).\n(§2) One such illustrative assay is shown in Example 1."}, "[2]": {"target": "T1, eukaryotic initiation factor 4A (eIF4A), yeast (TAP tagged Tif1) (Saccharomyces cerevisiae, UniProt P10081)", "T1 construct": "We performed proteolysis on yeast cell lysates that had been incubated with resveratrol or ethanol; TAP; endogenous in cells; host or cells: yeast cells (lysate); strain expressing TAP-tagged Tif1 for the western blot", "T1 sequence (P10081 1-395)": "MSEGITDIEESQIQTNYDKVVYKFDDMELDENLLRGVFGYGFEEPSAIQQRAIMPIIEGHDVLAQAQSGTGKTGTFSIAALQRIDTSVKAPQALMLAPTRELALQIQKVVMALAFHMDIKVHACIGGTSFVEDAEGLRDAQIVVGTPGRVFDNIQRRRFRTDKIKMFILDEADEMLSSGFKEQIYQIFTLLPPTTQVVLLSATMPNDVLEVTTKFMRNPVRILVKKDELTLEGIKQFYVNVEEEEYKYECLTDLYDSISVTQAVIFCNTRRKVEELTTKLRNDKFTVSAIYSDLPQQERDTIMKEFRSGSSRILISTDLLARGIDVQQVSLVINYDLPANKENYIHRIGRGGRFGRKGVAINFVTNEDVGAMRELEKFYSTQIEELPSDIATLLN", "experiment": "Proteolysis protection of yeast cell lysate proteins by resveratrol (silver staining, mass spectrometry, western blotting)", "format": "binding", "description": "(§3) FIGS. 1A-1C illustrate the identification of eIF4A as the molecular target of resveratrol. FIG. 1A: Chemical structure of resveratrol. FIG. 1B: Lysate from untreated yeast cells or Hela cell were incubated with resveratrol or vehicle for 1 hr at room temperature, followed by proteolysis, SDS-PAGE, and silver staining. Mass spectrometry identifies the protected protein is eIF4A. FIG. 1C: Western blotting confirms the protection of yeast (TAP-tagged Tifi) eIF4A by resveratrol.\nWe performed proteolysis on yeast cell lysates that had been incubated with resveratrol or ethanol (vehicle control)."}, "[3]": {"test_system": "cap-dependent (eIF4A-requiring) translation of renilla luciferase", "experiment": "Bicistronic dual-luciferase reporter pcDNA/Ren/HCV/FF in HEK 293 cells, Renilla luciferase", "format": "cell-based", "settings": "0-100 μM, 33 hour after transfection", "description": "as §1, §2"}, "[4]": {"target": "T2, human eIF4A (Homo sapiens, UniProt P60842)", "T2 construct": "endogenous in cells; host or cells: HeLa cell lysate", "T2 sequence (P60842 whole entry)": "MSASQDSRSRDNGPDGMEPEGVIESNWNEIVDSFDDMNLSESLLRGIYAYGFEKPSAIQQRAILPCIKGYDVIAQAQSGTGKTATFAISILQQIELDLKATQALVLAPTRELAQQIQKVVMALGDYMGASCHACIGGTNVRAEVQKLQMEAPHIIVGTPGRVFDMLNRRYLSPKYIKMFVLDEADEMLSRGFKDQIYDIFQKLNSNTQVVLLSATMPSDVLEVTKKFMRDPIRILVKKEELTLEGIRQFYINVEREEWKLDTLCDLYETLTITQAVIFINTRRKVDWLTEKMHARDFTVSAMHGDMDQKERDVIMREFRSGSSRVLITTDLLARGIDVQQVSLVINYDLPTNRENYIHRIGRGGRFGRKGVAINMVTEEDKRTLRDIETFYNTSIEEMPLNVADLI", "experiment": "Proteolysis protection in human HeLa cell lysate by resveratrol (western blotting)", "format": "binding", "settings": "100 μM resveratrol", "description": "as §3"}, "[5]": {"test_system": "eukaryotic translation (rabbit reticulocyte lysate system)", "experiment": "In vitro translation assay, rabbit reticulocyte lysate system, firefly luciferase mRNA", "format": "biochemical", "settings": "100 μM resveratrol", "description": "The rabbit reticulocyte lysate system was treated with different concentration of resveratrol (0, 1, 10, 50, 100, 500 μM), and the translation of firefly luciferase mRNA was measured with Promega luciferase assay.\nThe in vitor translation assay is performed with the rabbit reticulocyte lysate system. We added different concentrations of resveratrol into the in vitor translation reaction, and used the translation of firefly luciferase mRNA as a readout. […] Translation is reduced by >70% at 100 μM resveratrol, the concentration at which we previously detected eIF4A protection in HeLa cell lysate."}}}
{"smiles": "Oc1ccc(C=Cc2cc(O)cc(O)c2)cc1", "note": "[resveratrol]", "values": [{"measurement": "expression of firefly luciferase (HCV IRES)", "setting": "[1]", "result": "unaffected"}, {"measurement": "eIF4A in protected bands (15 and 25 kDa) after proteolysis, mass spectrometry", "setting": "[2]; yeast cell lysate incubated with resveratrol vs ethanol vehicle", "result": "enriched in the resveratrol-treated sample"}, {"measurement": "protection of yeast (TAP tagged Tif1) eIF4A, western blotting", "setting": "[2]; yeast lysate, proteolysis", "result": "further confirmed by western blotting"}, {"measurement": "expression of renilla luciferase (cap-dependent)", "setting": "[3]", "result": "inhibited in a dose-dependent manner"}, {"measurement": "protected band after proteolysis, confirmed as human eIF4A by western blotting", "setting": "[4]", "result": "protected band of similar size was detected"}, {"measurement": "Translation reduced (firefly luciferase signal)", "setting": "[5]", "result": "> 70", "unit": "%"}]}
